Data published in US20120245184A1 (Aderans Research Institute, Inc., priority 2006, published 2012).
Structures can show the parent of a compound that is named as a salt.

Assays:
sonic hedgehog pathway [1] = experiment: Hedgehog reporter assay (gli-luciferase) in TM3 cells; format: cell-based, mouse; details: read-out: TM3 Avg. EC50
Description: (§1) Mouse (TM3: mouse Leydig cells; S12: mouse embryonic mesenchymal cells) and human (Daoy: human medulloblastoma cell; HepM: human embryonic palatal mesenchymal cell) cell lines are used to screen small molecules for their ability to modulate the activity of the sonic hedgehog pathway (Table 1, Table 2, and Table 3). Stable hedgehog pathway reporter cell lines are established by specific antibiotic selection following transfection of a reporter plasmid containing a luciferase gene located directly downstream from the gli promoter. Consequently, any observable changes in cellular luciferase activity may be attributed to changes in sonic hedgehog pathway activity in mouse and human cells, respectively, since gli is the major by-product of this pathway. To calculate activity, we generate an eleven point dose curve for each compound using 1:3 dilutions in 96 well assay plates. Each plate tested also contains low and high control to establish maximal pathway activation so to establish/compare a percentage activation of each tested compound (AMAX) on respective plates.
(§2) Stable hedgehog pathway reporter cell lines are established following specific antibiotic selection following transfection of a reporter plasmid
(§3) In short, typically cells are plated in MicroTiter-plates at 10,000-20,000 cells per well, in growth media (containing 10%-20% FBS). After 48-72 hrs (HGL and DGL respectively) the media in the assay plates is switched to low-serum containing media (0.5% FBS). At that time compounds are added (at 1-5 μM) to the assay plates, in the presence or absence of hedgehog protein (octyl-modified version; 1-5 ng/ml). After another 24 hrs of incubation, the media from the assay plates is discarded and replaced with luciferase assay-mix. Subsequently, plates are incubated at RT for ˜15-30 mins and then read in a luminometer. [note: addition of the Hedgehog protein, although not critical, will sensitize the assay allowing the identification of weak actives].

sonic hedgehog pathway [2] = experiment: Human hedgehog reporter assay HEPM-GliLuc (HGL); format: cell-based; details: read-out: HEPM Avg. EC50
Description: as §1, §2, §3

sonic hedgehog pathway [3] = experiment: Human hedgehog reporter assay Daoy-GliLuc (DGL); format: cell-based; details: Daoy human medulloblastoma cells, gli-luciferase reporter; read-out: Daoy Avg. EC50
Description: as §1, §2, §3

[4] = TM3 mouse Leydig cells, gli-luciferase reporter
[5] = HepM human embryonic palatal mesenchymal cells, gli-luciferase reporter

| EC50 (sonic hedgehog pathway [1]; [4]) | EC50 (sonic hedgehog pathway [3]) | Compound | EC50 (sonic hedgehog pathway [2]; [5]) | EC50 (sonic hedgehog pathway [1]; Mus musculus, Leydig) | EC50 (sonic hedgehog pathway [2]; Homo sapiens) |
| --- | --- | --- | --- | --- | --- |
| 0.05 to 0.25 µM |  | CCOc1ccc(-c2ccc(C)nc2)cc1CN(C(=O)c1sc2ccccc2c1Cl)C1CCC(NC)CC1 (centres unmarked) [Compound R4, 3-Chloro-benzo[b]thiophene-2-carboxylic acid[2-ethoxy-5-(6-methyl-pyridin-3-yl)-benzyl]-(4-methylamino-cyclohexyl)-amide dihydrochloride] | 0.05 to 0.25 µM |  |  |
| < 0.05 µM | < 0.05 µM | CNC1CCC(N(Cc2cc(-c3ccc(N)nc3)ccc2OC)C(=O)c2sc3c(F)ccc(F)c3c2Cl)CC1 (centres unmarked) [Compound 352 (R18), 3-Chloro-4,7-difluoro-benzo[b]thiophene-2-carboxylic acid[5-(6-amino-pyridin-3-yl)-2-methoxy-benzyl]-(4-methylamino-cyclohexyl)-amide dihydrochloride] | < 0.05 µM |  |  |
| < 0.05 µM |  | CNC1CCC(N(Cc2cc(-c3cc(C)nc(C)c3)ccc2OC)C(=O)c2sc3ccccc3c2Cl)CC1 (centres unmarked) [Compound R1, 3-Chloro-benzo[b]thiophene-2-carboxylic acid[5-(2,6-dimethyl-pyridin-4-yl)-2-methoxy-benzyl]-(4-methylamino-cyclohexyl)-amide dihydrochloride] | 0.05 to 0.25 µM |  |  |
| < 0.05 µM | < 0.05 µM | CNC1CCC(N(Cc2cc(-c3ccc(Cl)cc3)ccc2OC)C(=O)c2sc3ccccc3c2Cl)CC1 (centres unmarked) [Compound 308, 3-Chloro-benzo[b]thiophene-2-carboxylic acid (4′-chloro-4-methoxy-biphenyl-3-ylmethyl)-(4-methylamino-cyclohexyl)-amide hydrochloride] |  |  |  |
| < 0.05 µM |  | CNC1CCC(N(Cc2cc(-c3ccnc(C)c3)ccc2OC)C(=O)c2sc3ccccc3c2Cl)CC1 (centres unmarked) [331 (R11), 3-Chloro-benzo[b]thiophene-2-carboxylic acid[2-methoxy-5-(2-methyl-pyridin-4-yl)-benzyl]-(4-methylamino-cyclohexyl)-amide dihydrochloride] | < 0.05 µM |  |  |
| 0.05 to 0.25 µM |  | CCOc1ccc(-c2ccc(C#N)cc2)cc1CN(C(=O)c1sc2ccccc2c1Cl)C1CCC(NC)CC1 (centres unmarked) [Compound R2, 3-Chloro-benzo[b]thiophene-2-carboxylic acid (4′-cyano-4-ethoxy-biphenyl-3-ylmethyl)-(4-methylamino-cyclohexyl)-amide hydrochloride] | 0.05 to 0.25 µM |  |  |
| < 0.05 µM |  | CCOc1ccc(-c2ccc(C(=O)C(F)(F)F)cc2)cc1CN(C(=O)c1sc2c(F)ccc(C)c2c1Cl)[C@H]1CC[C@@H](NC)CC1 [Compound 341, 3-Chloro-4,7-difluoro-benzo[b]thiophene-2-carboxylic acid[4-ethoxy-4′-(2,2,2-trifluoro-acetyl)-biphenyl-3-ylmethyl]-(4-methylamino-cyclohexyl)-amide trifluoroacetate] | 0.05 to 0.25 µM |  |  |
| < 0.05 µM | < 0.05 µM | CN[C@H]1CC[C@H](N(Cc2cc(-c3cccc(C(C)=O)c3)ccc2OC)C(=O)c2sc3cccc(F)c3c2Cl)CC1 [Compound 363, 3-Chloro-4-fluoro-benzo[b]thiophene-2-carboxylic acid (3′-acetyl-4-methoxy-biphenyl-3-ylmethyl)-(4-methylamino-cyclohexyl)-amide hydrochloride] |  |  |  |
| < 0.05 µM | < 0.05 µM | CN[C@H]1CC[C@H](N(Cc2cc(-c3ccc(F)cc3)ccc2OC)C(=O)c2sc3ccccc3c2Cl)CC1 [Compound 314, 3-Chloro-benzo[b]thiophene-2-carboxylic acid (4′-fluoro-4-methoxy-biphenyl-3-ylmethyl)-(4-methylamino-cyclohexyl)-amide hydrochloride] |  |  |  |
| 0.05 to 0.25 µM | < 0.05 µM | CN[C@H]1CC[C@H](N(Cc2cc(-c3cnc(N)nc3)ccc2OC)C(=O)c2sc3ccccc3c2Cl)CC1 [Compound 323, 3-Chloro-benzo[b]thiophene-2-carboxylic acid[5-(2-amino-pyrimidin-5-yl)-2-methoxy-benzyl]-(4-methylamino-cyclohexyl)-amide dihydrochloride] |  |  |  |
| 0.05 to 0.25 µM | < 0.05 µM | CNC1CCC(N(Cc2cc(-c3ccc(C(F)(F)F)cc3)ccc2OC)C(=O)c2sc3ccccc3c2Cl)CC1 (centres unmarked) [Compound 306, 3-Chloro-benzo[b]thiophene-2-carboxylic acid (4-methoxy-4′-trifluoromethyl-biphenyl-3-ylmethyl)-(4-methylamino-cyclohexyl)-amide trifluoroacetate] |  |  |  |
| < 0.05 µM |  | CN[C@H]1CC[C@@H](N(Cc2cc(-c3ccc(C(C)=O)cc3)ccc2OC)C(=O)C2=C(Cl)c3c(F)ccc(F)c3C2)CC1 [Compound R8, 3-Chloro-4,7-difluoro-benzo[b]thiophene-2-carboxylic acid(4′-carbamoyl-4-methoxy-biphenyl-3-ylmethyl)-(4-methylamino-cyclohexyl)-amide hydrochloride] | < 0.05 µM |  |  |
|  |  | CNC1CCC(N(Cc2cc(-c3ccc(S(C)(=O)=O)cc3)ccc2OC)C(=O)c2sc3ccccc3c2Cl)CC1 (centres unmarked) [Compound R7, 3-Chloro-benzo[b]thiophene-2-carboxylic acid (4′-methanesulfonyl-4-methoxy-biphenyl-3-ylmethyl)-(4-methylamino-cyclohexyl)-amide hydrochloride] |  | < 0.05 µM | < 0.05 µM |
| 0.25 to 1 µM | 0.05 to 0.25 µM | CNc1ncc(-c2ccc(OC)c(CN(C(=O)c3sc4ccccc4c3Cl)[C@H]3CC[C@H](NC)CC3)c2)cn1 [Compound 322, 3-Chloro-benzo[b]thiophene-2-carboxylic acid[2-methoxy-5-(2-methylamino-pyrimidin-5-yl)-benzyl]-(4-methylamino-cyclohexyl)-amide dihydrochloride] |  |  |  |

| Compound | EC50 (sonic hedgehog pathway [1]; [4]) | EC50 (sonic hedgehog pathway [3]) | EC50 (sonic hedgehog pathway [2]; [5]) | EC50 (sonic hedgehog pathway [1]; Mus musculus, Leydig) | EC50 (sonic hedgehog pathway [2]; Homo sapiens) |
| --- | --- | --- | --- | --- | --- |
| CNC1CCC(N(Cc2cc(-c3ccnc(C(=O)O)c3)ccc2OC)C(=O)c2sc3c(F)ccc(F)c3c2Cl)CC1 (centres unmarked) [Compound R6, 4-(3-{[(3-Chloro-4,7-difluoro-benzo[b]thiophene-2-carbonyl)-(4-methylamino-cyclohexyl)-amino]-methyl}-4-methoxy-phenyl)-pyridine-2-carboxylic acid bis(trifluoroacetate)] | 0.05 to 0.25 µM |  | 0.05 to 0.25 µM |  |  |
| CNC1CCC(N(Cc2cc(-c3ccc(OC(F)(F)F)cc3)ccc2OC)C(=O)c2sc3ccccc3c2Cl)CC1 (centres unmarked) [Compound 307, 3-Chloro-benzo[b]thiophene-2-carboxylic acid (4-methoxy-4′-trifluoromethoxy-biphenyl-3-ylmethyl)-(4-methylamino-cyclohexyl)-amide hydrochloride] | < 0.05 µM | < 0.05 µM |  |  |  |
| CCOc1ccc(-c2ccc(C(F)(F)F)cc2)cc1CN(C(=O)c1sc2ccccc2c1Cl)C1CCC(NC)CC1 (centres unmarked) [Compound 309, 3-Chloro-benzo[b]thiophene-2-carboxylic acid (4-ethoxy-4′-trifluoromethyl-biphenyl-3-ylmethyl)-(4-methylamino-cyclohexyl)-amide hydrochloride] | 0.05 to 0.25 µM | < 0.05 µM |  |  |  |
| CNC1CCC(N(Cc2cc(-c3ccncc3)ccc2OC)C(=O)c2sc3ccccc3c2Cl)CC1 (centres unmarked) [Compound 339 (R12), 3-Chloro-benzo[b]thiophene-2-carboxylic acid (2-methoxy-5-pyridin-4-yl-benzyl)-(4-methylamino-cyclohexyl)-amide dihydrochloride] | < 0.05 µM |  | < 0.05 µM |  |  |
| CNC1CCC(N(Cc2cc(-c3cccc(C#N)c3)ccc2OC)C(=O)c2sc3c(F)ccc(F)c3c2Cl)CC1 (centres unmarked) [Compound 337, 3-Chloro-4,7-difluoro-benzo[b]thiophene-2-carboxylic acid (3′-cyano-4-methoxy-biphenyl-3-ylmethyl)-(4-methylamino-cyclohexyl)-amide hydrochloride] | < 0.05 µM |  | < 0.05 µM |  |  |
| CCOc1ccc(-c2ccccc2)cc1CN(C(=O)c1sc2ccccc2c1Cl)C1CCC(NC)CC1 (centres unmarked) [Compound 313, 3-Chloro-benzo[b]thiophene-2-carboxylic acid (4-ethoxy-biphenyl-3-ylmethyl)-(4-methylamino-cyclohexyl)-amide hydrochloride] | 0.05 to 0.25 µM | < 0.05 µM |  |  |  |
| CNC1CCC(N(Cc2cc(-c3ccc(C#N)cc3)ccc2OC)C(=O)c2sc3c(F)ccc(F)c3c2Cl)CC1 (centres unmarked) [Compound 351, 3-Chloro-4,7-difluoro-benzo[b]thiophene-2-carboxylic acid (4′-cyano-4-methoxy-biphenyl-3-ylmethyl)-(4-methylamino-cyclohexyl)-amide hydrochloride] | < 0.05 µM |  | < 0.05 µM |  |  |
| CCOc1ccc(-c2ccc(OC)cc2)cc1CN(C(=O)c1sc2ccccc2c1Cl)C1CCC(NC)CC1 (centres unmarked) [Compound 312, 3-Chloro-benzo[b]thiophene-2-carboxylic acid (4-ethoxy-4′-methoxy-biphenyl-3-ylmethyl)-(4-methylamino-cyclohexyl)-amide hydrochloride] |  | 0.05 to 0.25 µM |  |  |  |
